Data published in PMC6162330, “Insights into a dual function amide oxidase/macrocyclase from lankacidin biosynthesis” (Nature Communications, 2018).
Values belong to the compound of their own block, whether it stands above or below them.

Columns and labels:
LkcE [1] = molecular target: T1, LkcE (Streptomyces rochei, UniProt G4V2H3); assay: X-ray crystallography, […] Å; mass spectrometry of released cofactor; assay type: binding; conditions: non-covalent; co-purified; selenomethionyl holo crystal
T1 construct: recombinant from E. coli (pBG-102), His6-SUMO tag removed by HRV3C protease

LkcE [2] = molecular target: T1, LkcE; assay: X-ray crystallography, […] Å, co-crystal; assay type: binding; conditions: active site, one of the two per site, no turnover
[3] = molecular target: LkcE wild type (amide oxidase/macrocyclase of lankacidin biosynthesis, Streptomyces rochei) (Streptomyces rochei); assay: SAXS; recombinant LkcE in solution; Rg 31.0 Å, Dmax 91 Å; compared with the homodimer's calculated mass and the LkcEWT crystal structure

T1 sequence (G4V2H3 entry or part of it): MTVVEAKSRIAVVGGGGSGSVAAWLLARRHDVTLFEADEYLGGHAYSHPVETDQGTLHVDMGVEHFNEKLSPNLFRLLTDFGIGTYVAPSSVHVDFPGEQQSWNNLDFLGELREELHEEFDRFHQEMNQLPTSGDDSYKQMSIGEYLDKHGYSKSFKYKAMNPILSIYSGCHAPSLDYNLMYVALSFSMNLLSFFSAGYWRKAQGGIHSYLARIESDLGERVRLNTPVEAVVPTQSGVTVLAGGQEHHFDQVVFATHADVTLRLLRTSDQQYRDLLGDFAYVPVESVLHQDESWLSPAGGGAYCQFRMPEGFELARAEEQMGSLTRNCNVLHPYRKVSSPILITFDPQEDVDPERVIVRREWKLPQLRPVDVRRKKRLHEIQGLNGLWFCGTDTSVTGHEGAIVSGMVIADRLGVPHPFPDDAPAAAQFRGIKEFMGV

X-ray crystallography, 3.15 Å; mass spectrometry of released cofactor (LkcE [1]): the FAD cofactor is non-covalently bound
Compound: Cc1cc2nc3c(=O)[nH]c(=O)nc-3n(C[C@H](O)[C@H](O)[C@H](O)COP(=O)(O)OP(=O)(O)OC[C@H]3O[C@@H](n4cnc5c(N)ncnc54)[C@H](O)[C@@H]3O)c2cc1C [FAD]

Compound: CCOC(=O)[C@H](C)C(C)=O [compound 4, EMAA]
X-ray crystallography, 2.80 Å, co-crystal (LkcE [2]; position overlaps DATD): clear electron density attributable to EMAA and DATD

Compound: C=CCNC(=O)[C@H](O)[C@@H](O)C(=O)NCC=C [compound 5, DATD]
X-ray crystallography, 2.80 Å, co-crystal (LkcE [2]; position overlaps EMAA): clear electron density attributable to EMAA and DATD

stoichiometry N [3]: 2
Compound: LkcE wild type (amide oxidase/macrocyclase of lankacidin biosynthesis, Streptomyces rochei) (enzyme)
